Several values for one entry are separate records, joined by “and”; a condition that tells them apart may be missing. Equal values may be shown once. Read-outs that look alike come from different tables or passages of the source.
Legend:
Klebsiella pneumoniae = assay: Anti-infectious activity in Swiss mice infected i.v. with Klebsiella pneumoniae; assay type: in vivo; details: for protective activity against lethal Klebsiella pneumoniae infection (in words): summary of observations
Description: In the Tables VII to XI are indicated the conditions in which the substances were administered and, according to the considered cases, the number of mice surviving 10 or 15 days later and the corresponding percentages of protection with respect to controls.

bovine serumalbumin = assay: Adjuvant activity in the Swiss female mouse, passive hemagglutination titer; assay type: in vivo; details: for Primary response, passive hemagglutination titer: 100 micrograms with 500 micrograms of bovine serumalbumin at day 0, day 21, serums titrated in pools; for Secondary response, passive hemagglutination titer: booster of antigen alone at day 30, day 36, titrated separately
Description: At day 0, 100 micrograms of C474 were injected with 500 micrograms of bovine serumalbumin. At day 30, the animals received a booster of 100 micrograms of antigen alone. The following results were obtained:
The titers are expressed in Log 2 of the passive hemagglutination titer. At day 21, the serums were titrated in pools; at day 36, they were titrated separately.

Candida albicans = assay: Protection of mice infected by the venous route with Candida albicans; assay type: in vivo
[1] = system: influenza virus suspension APR/8; assay type: in vivo; details: preventive, 0.1 mg per mouse
[2] = Retention of the muramylpeptide in liposomes incubated in MEM-FCS medium at 37° C.; assay type: physicochemical
Description: Liposomes produced under the same conditions, but with muramylpeptides labeled with tritium have enabled the following observations. […] The incorporation of the MDP-GDP and the stability of the latter, has also been verified in reaction tests with anti-MDP monoclonal antibodies. After incubation of these liposomes in the same medium at 37° C. for 72 hours, there is observed a constant agglutination of the liposomes with the antibody (95% of the liposome being agglutinated), this observation bearing witness to the practical absence of any loss of MDP-GDP. […] The leakage, if it was produced, would have been manifested by a decrease in the intensity of agglutination with time.

[3] = Pyrogenicity in rabbits (European Pharmacopoea); assay type: in vivo, rabbit; details: 1 mg/kg; groups of three rabits, individual animals
From the text: Certain of the compounds according to the invention show at relatively high doses, a certain pyrogenicity, whose impact is however reduced, taking into account the particularly higher therapeutic index from which they appear to benefit. This being the case, the muramylpeptides in which the group of modification by the two lipophile chains is fixed to the 6 position of the saccharide group, and of which the peptide chain is terminated by a glutamy-alpha-ester-gamma-amide group, are particularly advantageous by reason of their more reduced pyrogenicity. Testimony thereof is borne by comparative pyrogenicity measurements carried out on groups of three rabits with the two compounds more particularly studied, according to the procedure of the European Pharmacopoea, Vol. 2, 1971, pages 58-60. In fact, the following results are obtained, expressed by temperature observations observed in experimental animals to which had previously been administered 1 mg/kg of the compounds studied: for the MDP-GDP : 1°; 0.9° and 1° C.; for the 6 -0-GDP-MDPG-OnBu : 0.2°; 0.3° and 0.5° C.

[4] = Table IX, 5 × 10^4 K. pneumoniae, Gentamicin 10 μg subcutaneously 2 hours after infection, MDP or MDP-GDP 30 μg intravenously 24 hours before
[5] = Table VII, aqueous suspension, 100 μg i.v. at day -1, 10^4 K. pneumoniae
[6] = Table XI, 2 × 10^6 Candida albicans, muramylpeptide 100 μg/day/4 days i.v. (-4 to -1), amphotericin B 3 μg subcutaneously on the day of infection
[7] = Table XI, 2 × 10^6 Candida albicans, muramylpeptide 100 μg/day/4 days i.v., amphotericin B 3 μg subcutaneously
[8] = Table X, 100 μg i.v. at day -1, 10^4 K. pneumoniae

**Q.** With `CCCCCCCCCCCCCCCC(=O)OC[C@@H](COC(=O)CC[C@@H](NC(=O)[C@H](C)NC(=O)[C@@H](C)O[C@H]1[C@H](O)[C@@H](CO)OC(O)[C@@H]1NC(C)=O)C(N)=O)OC(=O)CCCCCCCCCCCCCCC` (stereo partly drawn) [MDP-GDP, alpha (N-acetyl-muramyl-L-alanyl-D-isoglutamine), beta, gamma-dipalmitoyl-sn-glycerol] as the compound, how does the “Protection (%)” value (Klebsiella pneumoniae; [4]) read?
**A.** The value was 16%.

**Q.** And the “Survival (15 d)” value (Klebsiella pneumoniae; [4])?
**A.** Its value is 4/24.

**Q.** And the “Protection (%)” value (Klebsiella pneumoniae; [5])?
**A.** The value was 65%.

**Q.** What about the “Survival (15 d)” value (Klebsiella pneumoniae; [5]) of the same compound?
**A.** Its value is 32/48.

**Q.** And the “protective activity when injected in liposomes (in words)” value (Klebsiella pneumoniae; in liposomes)?
**A.** The value was “the most active”.

**Q.** And the “protective activity against lethal Klebsiella pneumoniae infection (in words)” value (Klebsiella pneumoniae)?
**A.** The value was “protective activity comparable”.

**Q.** And the “Primary response, passive hemagglutination titer” value (bovine serumalbumin)?
**A.** Its value is 3.64 Log 2.

**Q.** What about the “Secondary response, passive hemagglutination titer” value (bovine serumalbumin) of the same compound?
**A.** Its value is 10.27 Log 2.

**Q.** What about the “Survival (10 d)” value (Candida albicans; [6]) of the same compound?
**A.** The value was 3/16.

**Q.** And the Protection (Candida albicans; [7])?
**A.** The Protection was 19.

**Q.** What about the Protection (Candida albicans; Table XII, aqueous suspension IOO μg × 4) of the same compound?
**A.** Its Protection is 75%.

**Q.** What about the “Survival (10 d)” value (Candida albicans; Table XII, aqueous suspension IOO μg × 4, days -4, -3, -2, and -1, 10^6 Candida albicans) of the same compound?
**A.** The value was 6/8.

**Q.** What about the “activity against Candida (in words)” value (Candida albicans; in vivo) of the same compound?
**A.** Its value is “active”.

**Q.** What about the survival ([1]; orally) of the same compound?
**A.** The survival was 56%.

**Q.** And the survival ([1]; subcutaneously)?
**A.** Its survival is 44%.

**Q.** For Gentamicin [reference compound], which “Protection (%)” value (Klebsiella pneumoniae; [4]) is on record?
**A.** Its value is 21%.

**Q.** What about the “Survival (15 d)” value (Klebsiella pneumoniae; [4]) of the same compound?
**A.** The value was 5/24.

**Q.** Which “Protection (%)” value (Klebsiella pneumoniae; [8]) does the source give for `CCCCCCCCCCCCCCCC(=O)OCC(COC(=O)[C@H](C)NC(=O)CC[C@@H](NC(=O)[C@@H](C)NC(=O)[C@@H](C)O[C@H]1[C@H](O)[C@@H](CO)OC(O)[C@@H]1NC(C)=O)C(N)=O)OC(=O)CCCCCCCCCCCCCCC` (stereo partly drawn) [MDP(D,D)-L-Ala-GDP, alpha (N-acetyl-muramyl-D-alanyl-D-isoglutaminyl-L-alanine) beta, gamma-dipalmitoyl-sn-glycerol] here?
**A.** The value was 25%.

**Q.** What about the “Survival (15 d)” value (Klebsiella pneumoniae; [8]) of the same compound?
**A.** The value was 6/16.

**Q.** What about the “protective activity against lethal Klebsiella pneumoniae infection (in words)” value (Klebsiella pneumoniae) of the same compound?
**A.** The value was “although active, is less so than MDP-L-Ala-GDP”.

**Q.** What about the “retention of the muramylpeptide in the liposomes (in words)” value (“retention of the muramylpeptide” for short) [2] of the same compound?
**A.** The value was “Quite similar observations”.

**Q.** For “6-O-(beta, gamma-dipalmitoyl-L-glyceryl)-N-acetyl-muramyl-L-alanyl-D-glutamine-n-buty l-ester [6-0-GDP-MDPG-OnBu]”, which “protective activity against lethal Klebsiella pneumoniae infection (in words)” value (Klebsiella pneumoniae) is on record?
**A.** The value was “protective activity comparable”.

**Q.** And the “Primary response, passive hemagglutination titer” value (bovine serumalbumin)?
**A.** The value was 2.64 Log 2.

**Q.** What about the “Secondary response, passive hemagglutination titer” value (bovine serumalbumin) of the same compound?
**A.** Its value is 8.6 Log 2.

**Q.** And the “temperature observations (pyrogenicity)” value [3]?
**A.** Its value is 0.2 °C and 0.3 °C and 0.5 °C.

**Q.** What about the “retention of the muramylpeptide” value [2] of the same compound?
**A.** Its value is “Quite similar observations”.

**Q.** For `CCCCCCCCCCCCCCCC(=O)OCC(COC(=O)[C@H](C)NC(=O)CC[C@@H](NC(=O)[C@H](C)NC(=O)[C@@H](C)O[C@H]1[C@H](O)[C@@H](CO)OC(O)[C@@H]1NC(C)=O)C(N)=O)OC(=O)CCCCCCCCCCCCCCC` (stereo partly drawn) [MDP-L-Ala-GDP, alpha (N-acetyl-muramyl-L-alanyl-D-isoglutaminyl-L-alanine), beta, gamma-dipalmitoyl-sn-glycerol], which “Protection (%)” value (Klebsiella pneumoniae; [8]) is on record?
**A.** Its value is 63%.

**Q.** And the “Survival (15 d)” value (Klebsiella pneumoniae; [8])?
**A.** Its value is 12/16.

**Q.** What about the “retention of the muramylpeptide” value [2] of the same compound?
**A.** The value was “Quite similar observations”.

**Q.** Which “Protection (%)” value (Klebsiella pneumoniae; [8]) does the source give for “6-O-(beta, gamma-dipalmitoyl-L-glycerol)-capryl -N-acetyl-muramyl-L-alanyl-D-glutamine-n-butyl ester [6-0-GDP-aminocaproyl-MDPG-OnBu]” here?
**A.** Its value is 56%.

**Q.** And the “Survival (15 d)” value (Klebsiella pneumoniae; [8])?
**A.** The value was 9/16.

**Q.** What about the “retention of the muramylpeptide” value [2] of the same compound?
**A.** The value was “Quite similar observations”.

**Q.** With `C[C@@H]1[C@H](O)[C@@H](C)/C=C/C=C/C=C/C=C/C=C/C=C/C=C/[C@H](O[C@@H]2O[C@H](C)[C@@H](O)[C@H](N)[C@@H]2O)C[C@@H]2O[C@](O)(C[C@@H](O)C[C@@H](O)[C@H](O)CC[C@@H](O)C[C@@H](O)CC(=O)O[C@H]1C)C[C@H](O)[C@H]2C(=O)O` [Amphotericin B, reference compound] as the compound, how does the “Survival (10 d)” value (Candida albicans; [6]) read?
**A.** Its value is 2/16.

**Q.** What about the Protection (Candida albicans; [7]) of the same compound?
**A.** Its Protection is 13.

**Q.** Which results are given for “alpha (N-acetyl-muramyl-D-alanyl-D-isoglutamine), beta, gamma-dipalmitoyl-sn-glycerol [MDP(D,D)-GDP]”?
**A.** Protection (%) (Klebsiella pneumoniae; [5]): 83.3%; Survival (15 d) (Klebsiella pneumoniae; [5]): 20/24; protective activity against lethal Klebsiella pneumoniae infection (in words) (Klebsiella pneumoniae): protective activity comparable; Survival (10 d) (Candida albicans; [6]): 0/16; retention of the muramylpeptide in the liposomes (in words) [2]: Quite similar observations

**Q.** Which “Protection (%)” value (Klebsiella pneumoniae; [5]) does the source give for `CCCCOC(=O)[C@@H](CCC(N)=O)NC(=O)[C@H](C)NC(=O)[C@@H](C)O[C@H]1[C@H](O)[C@@H](CO)OC(O)[C@@H]1NC(C)=O` (some centres unmarked) [MDPG-OnBu, reference compound] here?
**A.** The value was 62.5%.

**Q.** And the “Survival (15 d)” value (Klebsiella pneumoniae; [5])?
**A.** Its value is 20/32.

From patent publication US4939122A, “Lipophile derivatives of muramylpeptides having properties of activating macrophages and compositions containing them” (priority 1984, dated 1990)
